The compounds below were run against SHP2 (Homo sapiens (Human), UniProt Q06124) (assay: SHP2 allosteric inhibition assay (DiFMUP prompt fluorescence)). Details: 0.25 nM SHP2 activated with 0.5 μM peptide IRS1_pY1172(dPEG8)pY1222; substrate DiFMUP.
Assay type: biochemical

| IC50 [nM] | SMILES |
| --- | --- |
| ≤ 50 | CNC(=O)c1n[nH]c2nc(N3CCC4(CC3)Cc3ccccc3[C@H]4N)c(CO)nc12 [Example 155, 6-[(3S)-3-amino-1,3-dihydrospiro[indene-2,4′-piperidin]-1′-yl]-5-(hydroxymethyl)-N-methyl-1H-pyrazolo[3,4-b]pyrazine-3-carboxamide] |
| ≤ 50 | Cc1n[nH]c2nc(N3CCC4(CC3)Cc3ccccc3[C@H]4N)c(CO)nc12 [Example 156, {6-[(3S)-3-amino-1,3-dihydrospiro[indene-2,4′-piperidin]-1′-yl]-3-methyl-1H-pyrazolo[3,4-b]pyrazin-5-yl}methanol] |
| ≤ 50 | N[C@@H]1c2ccccc2CC12CCN(c1cnc(Cc3ccnc(Cl)c3Cl)cn1)CC2 [Example 157, (3S)-1′-{5-[(2,3-dichloropyridin-4-YL)methyl]pyrazin-2-yl}-1,3-dihydrospiro[indene-2,4′-piperidin]-3-amine] |
| ≤ 50 | COc1n[nH]c2nc(N3CCC4(CC3)Cc3ccccc3[C@H]4N)c(CO)nc12 [Example 158, {6-[(3S)-3-amino-1,3-dihydrospiro[indene-2,4′-piperidin]-1′-yl]-3-methoxy-1H-pyrazolo[3,4-b]pyrazin-5-yl}methanol] |
| ≤ 50 | N[C@@H]1c2ccccc2OC12CCN(c1nc3[nH]ncc3nc1CO)CC2 [Example 159, {6-[(3R)-3-amino-3H-spiro[1-benzofuran-2,4′-piperidin]-1′-yl]-1H-pyrazolo[3,4-b]pyrazin-5-yl}methanol] |
| > 10000 | Cc1nc2c(N3CCCCC3)n[nH]c2nc1N1CCC2(CC1)Oc1ccccc1[C@H]2N [Example 162, (3R)-1′-[5-methyl-3-(piperidin-1-yl)-1H-pyrazolo[3,4-b]pyrazin-6-yl]-3H-spiro[1-benzofuran-2,4′-piperidin]-3-amine] |
| 1000 to 10000 | Cc1nc2c(C#N)n[nH]c2nc1N1CCC2(CC1)Cc1ccccc1[C@H]2N [Example 163, 6-[(3S)-3-amino-1,3-dihydrospiro[indene-2,4′-piperidin]-1′-yl]-5-methyl-1H-pyrazolo[3,4-b]pyrazine-3-carbonitrile] |
| ≤ 50 | Cc1nc2c(C3=CCOCC3)n[nH]c2nc1N1CCC2(CC1)Cc1ccccc1[C@H]2N [Example 167, (3S)-1′-[3-(3,6-dihydro-2H-pyran-4-yl)-5-methyl-1H-pyrazolo[3,4-b]pyrazin-6-yl]-1,3-dihydrospiro[indene-2,4′-piperidin]-3-amine] |
| 1000 to 10000 | N[C@@H]1c2ccccc2CC12CCN(c1cn3ccnc3cn1)CC2 [Example 169, (3S)-1′-{imidazo[1,2-a]pyrazin-6-yl}-1,3-dihydrospiro[indene-2,4′-piperidin]-3-amine] |
| ≤ 50 | N[C@@H]1c2ccccc2CC12CCN(c1cnc(OCC3CC3)cn1)CC2 [Example 171, (3S)-1′-[5-(cyclopropylmethoxy)pyrazin-2-yl]-1,3-dihydrospiro[indene-2,4′-piperidin]-3-amine] |
| ≤ 50 | N[C@H]1c2ccccc2C[C@]12CC=C(c1cnc3c(N4CCCc5ncccc54)n[nH]c3n1)CC2 [Example 174, (1R,1′R)-4-(3-(3,4-dihydro-1,5-naphthyridin-1(2H)-yl)-1H-pyrazolo[3,4-b]pyrazin-6-yl)-1′,3′-dihydrospiro[cyclohex[3]ene-1,2′-inden]-1′-amine] |
| 1000 to 10000 | N[C@@H]1c2ccccc2C[C@]12CC=C(c1cnc3c(N4CCCc5ncccc54)n[nH]c3n1)CC2 [Example 175, (1S,1'S)-4-(3-(3,4-dihydro-1,5-naphthyridin-1(2H)-yl)-1H-pyrazolo[3,4-b]pyrazin-6-yl)-1′,3′-dihydrospiro[cyclohex[3]ene-1,2′-inden]-1′-amine] |
| ≤ 50 | Nc1nccc(Sc2cnc(N3CCC4(CC3)Oc3ccccc3[C@H]4N)cn2)c1Cl [Example 177] |
| > 10000 | Cn1c(N2CCC3(CC2)Cc2ccccc2[C@H]3N)nc2[nH]nc(Sc3cccc(Cl)c3Cl)c2c1=O [Example 178] |
| ≤ 50 | N[C@@H]1c2ccccc2CC12CCN(c1cnc3ccccc3n1)CC2 [Example 179] |
| 1000 to 10000 | N[C@@H]1c2ccccc2CC12CCN(c1nccn3ccnc13)CC2 [Example 180] |
| 1000 to 10000 | Cn1ncc2c(N3CCC4(CC3)Cc3ccccc3[C@H]4N)ncnc21 [Example 181] |
| > 10000 | Cn1cc2c(N3CCC4(CC3)Cc3ccccc3[C@H]4N)ncnc2n1 [Example 182] |
| > 10000 | Cn1cnc2ccnc(N3CCC4(CC3)Cc3ccccc3[C@H]4N)c21 [Example 183] |

| IC50 [nM] | SMILES |
| --- | --- |
| 50 to 1000 | Cn1cnc2c(N3CCC4(CC3)Cc3ccccc3[C@H]4N)ncnc21 [Example 184] |
| ≤ 50 | Nc1nccc(Oc2cnc(N3CCC4(CC3)Oc3ccccc3[C@H]4N)cn2)c1Cl [Example 187, (3R)-1′-{5-[(2-amino-3-chloropyridin-4-yl)oxy]pyrazin-2-yl}-3H-spiro[1-benzofuran-2,4′-piperidin]-3-amine] |
| 1000 to 10000 | N[C@@H]1c2ccccc2CC12CCN(c1cnc3c(ccn3-c3cccc4ncccc34)n1)CC2 [Example 192, (3S)-1′-[5-(quinolin-5-yl)-5H-pyrrolo[2,3-b]pyrazin-2-yl]-1,3-dihydrospiro[indene-2,4′-piperidin]-3-amine] |
| ≤ 50 | Cc1nc2c(ccn2C2=CCOCC2)nc1N1CCC2(CC1)Cc1ccccc1[C@H]2N [Example 193, (3S)-1′-[5-(3,6-dihydro-2H-pyran-4-yl)-3-methyl-5H-pyrrolo[2,3-b]pyrazin-2-yl]-1,3-dihydrospiro[indene-2,4′-piperidin]-3-amine] |
| ≤ 50 | Cc1nc2c(ccn2-c2cccc3ncccc23)nc1N1CCC2(CC1)Cc1ccccc1[C@H]2N [Example 194, (3S)-1′-[3-methyl-5-(quinolin-5-yl)-5H-pyrrolo[2,3-b]pyrazin-2-yl]-1,3-dihydrospiro[indene-2,4′-piperidin]-3-amine] |
| ≤ 50 | Cc1nc(N2CCCc3ncccc32)cnc1N1CCC2(CC1)Cc1ccccc1[C@H]2N [Example 196] |
| ≤ 50 | Cc1nc(N2CCC3(CC2)Cc2ccccc2[C@H]3N)cnc1N1CCCc2ncccc21 [Example 197] |
| > 10000 | N[C@@H]1c2ccccc2CC12CCN(c1cnc(OCc3cccc4cccnc34)cn1)CC2 [Example 198] |
| ≤ 50 | Cc1c(NCc2cccnc2)ccnc1N1CCC2(CC1)Cc1ccccc1[C@H]2N [Example 199] |
| ≤ 50 | Cn1nccc1-c1cc(N2CCC3(CC2)Cc2ccccc2[C@H]3N)cn2ccnc12 [Example 201] |
| ≤ 50 | N[C@@H]1c2ccccc2CC12CCN(c1cc(OC(F)F)c3nccn3c1)CC2 [Example 202] |
| ≤ 50 | Cc1nc2c(cnn2-c2cccc3c(=O)n(C)ccc23)nc1N1CCC2(CC1)Oc1ccccc1[C@H]2N [Example 203] |
| ≤ 50 | N[C@@H]1c2ccccc2CC12CCN(C(=O)c1csc(N3CCCCC3)n1)CC2 [Example 204] |
| 50 to 1000 | Cn1c(N2CCC3(CC2)Cc2ccccc2[C@H]3N)ncc(N2CCCc3ccccc32)c1=O [Example 205] |
| ≤ 50 | Cn1c(N2CCC3(CC2)Cc2ccccc2[C@H]3N)ccc(N2CCCc3ccccc32)c1=O [Example 206] |
| 1000 to 10000 | Cc1c(N2CCCc3ccccc32)nc2sc(N3CCC4(CC3)Cc3ccccc3[C@H]4N)nn12 [Example 207] |
| 1000 to 10000 | Cc1nc2c(N3CCCCC3)n[nH]c2nc1N1CCC2(CC1)Oc1ccc(F)cc1[C@H]2N [Example 208] |
| 1000 to 10000 | N[C@@H]1c2ccccc2CC12CCN(c1ccc3c(N4CCCCC4)n[nH]c3n1)CC2 [Example 209] |
| > 10000 | N[C@@H]1c2ccccc2CC12CCN(c1ncc(N3CCCc4ccccc43)c(=O)[nH]1)CC2 [Example 210] |

| SMILES | IC50 [nM] |
| --- | --- |
| Cc1nc2c(N3CCOCC3)n[nH]c2nc1N1CCC2(CC1)Cc1ccccc1[C@H]2N [Example 160, (3S)-1′-[5-methyl-3-(morpholin-4-yl)-1H-pyrazolo[3,4-b]pyrazin-6-yl]-1,3-dihydrospiro[indene-2,4′-piperidin]-3-amine] | ≤ 50 |
| N[C@@H]1c2ccccc2CC12CCN(c1cnc(SC3CCCC3)cn1)CC2 [Example 168, (3S)-1′-[5-(cyclopentylsulfanyl)pyrazin-2-yl]-1,3-dihydrospiro[indene-2,4′-piperidin]-3-amine] | ≤ 50 |
| CCSc1cnc(N2CCC3(CC2)Cc2ccccc2[C@H]3N)cn1 [Example 170, (3S)-1′-[5-(ethylsulfanyl)pyrazin-2-yl]-1,3-dihydrospiro[indene-2,4′-piperidin]-3-amine] | 50 to 1000 |
| N[C@@H]1c2ccccc2CC12CCN(c1cnc(SC3CCOCC3)cn1)CC2 [Example 185, (S)-1′-(5-((tetrahydro-2H-pyran-4-yl)thio)pyrazin-2-yl)-1,3-dihydrospiro[indene-2,4′-piperidin]-1-amine] | 1000 to 10000 |
| Cc1nc2c(N3CCC(F)(F)CC3)n[nH]c2nc1N1CCC2(CC1)Cc1ccccc1[C@H]2N [Example 186, (3S)-1′-[3-(4,4-difluoropiperidin-1-yl)-5-methyl-1H-pyrazolo[3,4-b]pyrazin-6-yl]-1,3-dihydrospiro[indene-2,4′-piperidin]-3-amine] | ≤ 50 |
| N[C@@H]1c2ccccc2CC12CCN(c1ncnc3c1cnn3-c1ccccc1)CC2 [Example 195, (3S)-1′-{1-phenyl-1Hpyrazolo[3,4-d]pyrimidin-4-yl}-1,3-dihydrospiro[indene-2,4′-piperidin]-3-amine] | ≤ 50 |
| N[C@@H]1c2ccccc2CC12CCN(c1ncc(N3CCCc4ncccc43)nc1CO)CC2 [Example 211, {3-[(3S)-3-amino-1,3-dihydrospiro[indene-2,4′-piperidin]-1′-yl]-6-(1,2,3,4-tetrahydro-1,5-naphthyridin-1-yl)pyrazin-2-yl}methanol] | 50 to 1000 |
| N[C@@H]1c2ccccc2CC12CCN(c1ncc(N3CCCc4ccccc43)nc1CO)CC2 [Example 212, {3-[(3S)-3-amino-1,3-dihydrospiro[indene-2,4′-piperidin]-1′-yl]-6-(1,2,3,4-tetrahydroquinolin-1-yl)pyrazin-2-yl}methanol] | ≤ 50 |
| N[C@@H]1c2ccccc2CC12CCN(c1ncc(N3CCc4ccccc43)nc1CO)CC2 [Example 213, (S)-(3-(1-amino-1,3-dihydrospiro[indene-2,4′-piperidin]-1′-yl)-6-(indolin-1-yl)pyrazin-2-yl) methanol] | 50 to 1000 |
